Read-outs that look alike come from different tables or passages of the source.
Columns and labels:
[1] = target: T1, human ERα (Homo sapiens, UniProt P03372); assay: ER radioligand binding competition, ERα
T1 construct: These templates contained amino acids M250-V595 of human ERα; His (N); Flag (C); made in house; host or cells: E. coli BL21 (DE3), clarified lysate
T1 sequence (P03372 250-595): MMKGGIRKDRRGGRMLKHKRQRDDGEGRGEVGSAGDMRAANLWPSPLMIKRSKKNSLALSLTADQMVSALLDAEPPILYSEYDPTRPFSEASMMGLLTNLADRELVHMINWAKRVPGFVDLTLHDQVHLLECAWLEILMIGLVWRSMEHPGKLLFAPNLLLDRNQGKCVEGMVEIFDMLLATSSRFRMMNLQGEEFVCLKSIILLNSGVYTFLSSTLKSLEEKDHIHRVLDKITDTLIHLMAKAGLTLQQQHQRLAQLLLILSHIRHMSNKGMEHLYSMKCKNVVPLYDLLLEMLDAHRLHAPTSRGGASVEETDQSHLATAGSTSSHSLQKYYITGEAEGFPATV

[2] = target: T2, human ERβ (Homo sapiens, UniProt Q92731); assay: ER radioligand binding competition, ERβ
T2 construct: Flag (C); made in house; host or cells: E. coli BL21 (DE3), clarified lysate

[3] = tested on: Lewis rats; assay: Lewis rat adjuvant-induced arthritis, treatment protocol: joint score (maximal score per day 12); note: test concentration or dose not given here; format: in vivo; conditions: s.c. daily, begun Day 8 after adjuvant
[4] = competition with [3H]-17β-estradiol, read-out: ER-α IC50

T2 sequence (Q92731 214-530): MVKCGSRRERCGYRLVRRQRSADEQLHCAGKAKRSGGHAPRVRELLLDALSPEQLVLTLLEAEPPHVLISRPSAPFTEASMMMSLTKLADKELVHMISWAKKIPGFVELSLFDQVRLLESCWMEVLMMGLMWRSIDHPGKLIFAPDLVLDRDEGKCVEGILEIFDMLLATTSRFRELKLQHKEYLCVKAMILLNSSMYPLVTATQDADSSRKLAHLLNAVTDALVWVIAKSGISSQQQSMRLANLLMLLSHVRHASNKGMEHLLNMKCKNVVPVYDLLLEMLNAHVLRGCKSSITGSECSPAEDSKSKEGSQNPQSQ

SMILES	IC50 [1, 4]	IC50 [2]	also measured
Oc1ccc(O)c(-c2nc3cc(O)ccc3o2)c1 [Example 1, 2-(5-HYDROXY-1,3-BENZOXAZOL-2-YL) BENZENE-1,4-DIOL]	720 nM	140 nM	–
Oc1ccc2nc(-c3ccc(O)c(F)c3)oc2c1 [Example 6, 2-(3-FLUORO-4-HYDROXYPHENYL)-1,3-BENZOXAZOL-6-OL]	–	–	IC50 [1]: 843 nM
Oc1ccc(O)c(-c2nc3ccc(O)cc3o2)c1 [Example 8, 2-(6-HYDROXY-1,3-BENZOXAZOL-2-YL)BENZENE-1,4-DIOL]	2350 nM	181 nM	–
Oc1ccc2nc(-c3cccc(O)c3O)oc2c1 [Example 9, 3-(6-HYDROXY-1,3-BENZOXAZOL-2-YL)BENZENE-1,2-DIOL]	–	–	IC50 [1]: 1500 nM
Oc1cc(Br)c2oc(-c3ccc(O)c(F)c3F)nc2c1 [Example 23, 7-BROMO-2-(2,3-DIFLUORO-4-HYDROXYPHENYL)-1,3-BENZOXAZOL-5-OL]	113 nM	3 nM	–
C=Cc1cc(O)cc2nc(-c3ccc(O)cc3)oc12 [Example 27, 2-(4-HYDROXYPHENYL)-7-VINYL-1,3-BENZOXAZOL-5-OL]	–	–	IC50 [1]: 409 nM; Joint inflammation score ([3]; table Day 1): 11.33; Joint inflammation score ([3]; table Day 2): 11.15; Joint inflammation score ([3]; table Day 3): 11.33; Joint inflammation score ([3]; table Day 4): 9.83; Joint inflammation score ([3]; table Day 5): 8.83; Joint inflammation score ([3]; table Day 6): 7.83; Joint inflammation score ([3]; table Day 7): 6.16; Joint inflammation score ([3]; table Day 8): 5.00; Joint inflammation score ([3]; table Day 9): 4.33; Joint inflammation score ([3]; table Day 10): 2.66; Joint inflammation score ([3]; table Day 11): 1.83; Joint inflammation score ([3]; table Day 12): 1.83; Joint inflammation score ([3]; table Day 13): 2.66; Joint inflammation score ([3]; table Day 14): 2.66; Joint inflammation score ([3]; table Day 15): 2.00; Joint inflammation score ([3]; table Day 16): 2.00; Joint inflammation score ([3]; table Day 17): 1.50
Oc1ccc(-c2nc3cc(O)cc(C(Br)CBr)c3o2)cc1 (centres unmarked) [Example 30, 7-(1,2-DIBROMOETHYL)-2-(4-HYDROXYPHENYL)-1,3-BENZOXAZOL-5-OL]	3080 nM	134 nM	–
C=C(Br)c1cc(O)cc2nc(-c3ccc(O)cc3)oc12 [Example 31, 7-(1-BROMOVINYL)-2-(4-HYDROXYPHENYL)-1,3-BENZOXAZOL-5-OL]	352 nM	31 nM	–
C=C(Br)c1cc(O)cc2nc(-c3ccc(O)c(F)c3F)oc12 [Example 33, 7-(1-BROMOVINYL)-2-(2,3-DIFLUORO-4-HYDROXYPHENYL)-1,3-BENZOXAZOL-5-OL]	352 nM	31 nM	–
CCc1cc(O)ccc1-c1nc2cc(O)cc(CC)c2o1 [Example 45, 7-ETHYL-2-(2-ETHYL-4-HYDROXYPHENYL)-1,3-BENZOXAZOL-5-OL]	655 nM	84 nM	–
CC(C)(O)c1cc(O)cc2nc(-c3ccc(O)cc3)oc12 [Example 50]	> 5000 nM	399 nM	–
C=C(C)c1cc(O)cc2nc(-c3ccc(O)cc3)oc12 [Example 51, 2-(4-HYDROXYPHENYL)-7-ISOPROPENYL-1,3-BENZOXAZOL-5-OL]	775 nM	142 nM	–
COc1cc(O)c(Br)c2nc(-c3ccc(O)cc3)oc12 [Example 59, 4-BROMO-2-(4-HYDROXYPHENYL)-7-METHOXY-1,3-BENZOXAZOL-5-OL]	2670 nM	52 nM	–
COc1c(Br)c(O)c(Br)c2nc(-c3ccc(O)cc3)oc12 [Example 60, 4,6-DIBROMO-2-(4-HYDROXYPHENYL)-7-METHOXY-1,3-BENZOXAZOL-5-OL]	559 nM	64 nM	–
Oc1cc(Br)c2oc(-c3cc(F)c(O)c(F)c3)nc2c1 [Example 61, 7-BROMO-2-(3,5-DIFLUORO-4-HYDROXYPHENYL)-1,3-BENZOXAZOL-5-OL]	1180 nM	93 nM	–

— patent US20060046968A1, “Prodrug substituted benzoxazoles as estrogenic agents” (priority 2004, published 2006)
